Reference: the supplement of paper PMC11208160

Experiment: recombinant UMI read abundance after kanamycin selection (control-corrected) (log10(CPM+1)); higher = more efficient recombination; extreme values may be limits of the assay; sequences stand for … in AGTGCAGAGAAAATCGGCCAGTTTTCTCTGCCTGCAGTCCGCATGCCGTGGGACCCCTTGGGTTCTAACCTGTTGCCTAGATTTATGCAGCGGACTGCCTTTCTCCCAAAGTGATAAACCGG…AGGTTGGTTTCACT; site = the 11-nt donor
How it was run: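 In a pooled Escherichia coli screen for the IS621 bridge recombinase, donor and donor-binding-loop pairs were each placed with a 12-nt UMI on a plasmid bearing a promoterless kanamycin gene. This library was co-electroporated with a target plasmid encoding a fixed target and T7-inducible recombinase, and cells were plated either on IPTG (0.07 mM) plus kanamycin or without selection, in two replicates each. Recombinant UMIs were PCR-amplified across the donor–target junction and sequenced, and counts were converted to CPM, averaged over replicates, scaled by control-derived factors and reported as log10(CPM+1).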
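Further: IS621 bridge recombinase in Escherichia coli cells against a fixed T5 target plasmid.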

| Sequence | recombinant UMI read abundance (log10) |
| --- | --- |
| TGGCGGGCATGGACCGGTTTTCCCGGTAATCCGTATTTGGC (site TGGCTGGCTGC) | 1.01 |
| TGGCGGGCATGGACCGGTTTTCCCGGTAATCCGTATTTGTT (site TGGCGGGCTAA) | 0.701 |
| TGGCTCCCATGGACCGGTTTTCCCGGTAATCCGTATTTGGT (site TGGCTCCCTAC) | 0.203 |
| TGGCTGGCATGGACCGGTTTTCCCGGTAATCCGTATTTGGC (site TGGCAGGCTGC) | 0 |
| TGGCTGGCATGGACCGGTTTTCCCGGTAATCCGTATTTGGC (site TGGCCGGCTGC) | 0 |
| TGGCTGGCATGGACCGGTTTTCCCGGTAATCCGTATTTGGC (site TGGCGGGCTGC) | 0 |
| TGGCTGGCATGGACCGGTTTTCCCGGTAATCCGTATTTGGC (site TGGCTGGCTGC) | 1.33 |
| TGGGCAACATGGACCGGTTTTCCCGGTAATCCGTATTTGTG (site TGGGCAACTCA) | 0.0056 |
| TGGGCACCATGGACCGGTTTTCCCGGTAATCCGTATTTGCA (site AGGGCACCTTG) | 0.00499 |
| TGGGCACCATGGACCGGTTTTCCCGGTAATCCGTATTTGCA (site CGGGCACCTTG) | 0.00478 |
| TGGGCACCATGGACCGGTTTTCCCGGTAATCCGTATTTGCA (site GGGGCACCTTG) | 0 |
| TGGGCACCATGGACCGGTTTTCCCGGTAATCCGTATTTGCA (site TGGGCACCTTG) | 0.00258 |
| TGGGCGGCATGGACCGGTTTTCCCGGTAATCCGTATTTGAT (site TGGGCGGCTAT) | 1.11 |
| TGGTAAGCATGGACCGGTTTTCCCGGTAATCCGTATTTGGC (site TGGTAAGCTGC) | 2.86 |
| TGGTAATCATGGACCGGTTTTCCCGGTAATCCGTATTTGTG (site TGGTAATCTCA) | 1.65 |
| TGGTCACCATGGACCGGTTTTCCCGGTAATCCGTATTTGTC (site GTACTCACTCC) | 0.00879 |
| TGGTGACCATGGACCGGTTTTCCCGGTAATCCGTATTTGTC (site TGGTGACCTGA) | 0 |
| TGTAAACCATGGACCGGTTTTCCCGGTAATCCGTATTTGAC (site TGTAAACCTGT) | 0 |
| TGTAAACCATGGACCGGTTTTCCCGGTAATCCGTATTTGAC (site TGTACACCTGT) | 0 |
| TGTAAACCATGGACCGGTTTTCCCGGTAATCCGTATTTGAC (site TGTAGACCTGT) | 0 |
| TGTAAACCATGGACCGGTTTTCCCGGTAATCCGTATTTGAC (site TGTATACCTGT) | 0 |
| TGTAAGACATGGACCGGTTTTCCCGGTAATCCGTATTTGGC (site TGTAAGACTGC) | 0 |
| TGTACAACATGGACCGGTTTTCCCGGTAATCCGTATTTGAG (site TGTACAACTCT) | 0.0145 |

| Sequence | recombinant UMI read abundance (log10) |
| --- | --- |
| TGTACACCATGGACCGGTTTTCCCGGTAATCCGTATTTGAA (site TGTACACCTAT) | 0.0146 |
| TGTACACCATGGACCGGTTTTCCCGGTAATCCGTATTTGAA (site TGTACACCTCT) | 0.00905 |
| TGTACACCATGGACCGGTTTTCCCGGTAATCCGTATTTGAA (site TGTACACCTGT) | 0 |
| TGTACACCATGGACCGGTTTTCCCGGTAATCCGTATTTGAA (site TGTACACCTTT) | 0.0198 |
| TGTACACCATGGACCGGTTTTCCCGGTAATCCGTATTTGAT (site TGTACACCTAT) | 0.00557 |
| TGTACACCATGGACCGGTTTTCCCGGTAATCCGTATTTGAT (site TGTACACCTCT) | 0 |
| TGTACACCATGGACCGGTTTTCCCGGTAATCCGTATTTGAT (site TGTACACCTGT) | 0 |
| TGTACACCATGGACCGGTTTTCCCGGTAATCCGTATTTGAT (site TGTACACCTTT) | 0.00971 |
| TGTACCCCATGGACCGGTTTTCCCGGTAATCCGTATTTGAC (site TGTACACCTGT) | 0 |
| TGTACCCCATGGACCGGTTTTCCCGGTAATCCGTATTTGAC (site TGTACCCCTGT) | 1.52 |
| TGTACCCCATGGACCGGTTTTCCCGGTAATCCGTATTTGAC (site TGTACGCCTGT) | 0 |
| TGTACCCCATGGACCGGTTTTCCCGGTAATCCGTATTTGAC (site TGTACTCCTGT) | 0.00417 |
| TGTACTCCATGGACCGGTTTTCCCGGTAATCCGTATTTGAC (site TGTACACCTGT) | 0 |
| TGTACTCCATGGACCGGTTTTCCCGGTAATCCGTATTTGAC (site TGTACCCCTGT) | 0.817 |
| TGTACTCCATGGACCGGTTTTCCCGGTAATCCGTATTTGAC (site TGTACGCCTGT) | 0 |
| TGTACTCCATGGACCGGTTTTCCCGGTAATCCGTATTTGAC (site TGTACTCCTGT) | 0 |
| TGTAGTGCATGGACCGGTTTTCCCGGTAATCCGTATTTGCG (site TGTAGTGCTCG) | 0.963 |
| TGTCCCCCATGGACCGGTTTTCCCGGTAATCCGTATTTGTA (site TGTACCCCTTA) | 0.013 |
| TGTCCCCCATGGACCGGTTTTCCCGGTAATCCGTATTTGTA (site TGTCCCCCTTA) | 0.0699 |
| TGTCCCCCATGGACCGGTTTTCCCGGTAATCCGTATTTGTA (site TGTGCCCCTTA) | 0.0174 |
| TGTCCCCCATGGACCGGTTTTCCCGGTAATCCGTATTTGTA (site TGTTCCCCTTA) | 0.0128 |
| TGTCTAACATGGACCGGTTTTCCCGGTAATCCGTATTTGGC (site TGTCTAACTGC) | 0.011 |
| TGTCTATCATGGACCGGTTTTCCCGGTAATCCGTATTTGAC (site TGTCTATCTGT) | 0 |

| Sequence | recombinant UMI read abundance (log10) |
| --- | --- |
| TGTGATACATGGACCGGTTTTCCCGGTAATCCGTATTTGCC (site TGTGATACTGG) | 0 |
| TGTGATTCATGGACCGGTTTTCCCGGTAATCCGTATTTGTG (site TGTGATTCTCA) | 0.304 |
| TGTGCAGCATGGACCGGTTTTCCCGGTAATCCGTATTTGGT (site TGTGCAGCTAC) | 0.0104 |
| TGTGCGTCATGGACCGGTTTTCCCGGTAATCCGTATTTGGT (site TGTGCGTCTAC) | 0.348 |
| TGTGGAGCATGGACCGGTTTTCCCGGTAATCCGTATTTGGC (site TGTGGAGCTGC) | 1.6 |
| TGTGGTACATGGACCGGTTTTCCCGGTAATCCGTATTTGGC (site TGTGGTACTGC) | 0.698 |
| TGTGTAACATGGACCGGTTTTCCCGGTAATCCGTATTTGGG (site TGTGTAACTCC) | 0.0344 |
| TGTGTATCATGGACCGGTTTTCCCGGTAATCCGTATTTGAT (site TGTGTATCTAT) | 0.398 |
| TGTTATACATGGACCGGTTTTCCCGGTAATCCGTATTTGCA (site TGTTATACTTG) | 1.64 |
| TGTTCAGCATGGACCGGTTTTCCCGGTAATCCGTATTTGTA (site TGTTCAGCTTA) | 0.141 |
| TGTTCCACATGGACCGGTTTTCCCGGTAATCCGTATTTGTA (site TGTTCCACTTA) | 0.225 |
| TGTTCCACATGGACCGGTTTTCCCGGTAATCCGTATTTGTA (site TGTTCCCCTTA) | 0.00983 |
| TGTTCCACATGGACCGGTTTTCCCGGTAATCCGTATTTGTA (site TGTTCCGCTTA) | 0.0123 |
| TGTTCCACATGGACCGGTTTTCCCGGTAATCCGTATTTGTA (site TGTTCCTCTTA) | 0.0149 |
| TGTTCCGCATGGACCGGTTTTCCCGGTAATCCGTATTTGGC (site TGTTCCGCTGC) | 0.484 |
| TGTTCCTCATGGACCGGTTTTCCCGGTAATCCGTATTTGTA (site TGTTCCACTTA) | 0.0142 |
| TGTTCCTCATGGACCGGTTTTCCCGGTAATCCGTATTTGTA (site TGTTCCCCTTA) | 0.00558 |
| TGTTCCTCATGGACCGGTTTTCCCGGTAATCCGTATTTGTA (site TGTTCCGCTTA) | 0 |
| TGTTCCTCATGGACCGGTTTTCCCGGTAATCCGTATTTGTA (site TGTTCCTCTTA) | 1.06 |
| TGTTCGCCATGGACCGGTTTTCCCGGTAATCCGTATTTGTA (site TGTTCACCTTA) | 0 |
| TGTTCGCCATGGACCGGTTTTCCCGGTAATCCGTATTTGTA (site TGTTCCCCTTA) | 0.0392 |
| TGTTCGCCATGGACCGGTTTTCCCGGTAATCCGTATTTGTA (site TGTTCGCCTTA) | 0.0127 |
